This passage reports IC50 and inhibition results from patent US5760036A, “Aminediol protease inhibitors” (E. R. Squibb & Sons, Inc., priority 1995, dated 1998).

Where two headings read alike, the source gives them in different places.

Assay [1] deals with RF strain of HIV (CEM-SS cells). The assay is described as follows: Cell Culture Anti-HIV Activity (cell viability, formazan). The class given is cell-based. Particulars: Human immunodeficiency virus 1, CEM-SS, 144 h, CEM-SS cells, RF strain of HIV, multiplicity of infection 0.04, 6 days at 37° C., 450 nm; read-out: HIV (CEM Cells) IC50. The essentials: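 CEM-SS cells (5000/well) infected with HIV RF at MOI 0.04, exposed to half-log serial compound dilutions, incubated 6 days at 37° C. Viability read by tetrazolium reduction to formazan, absorbance 450 nm. IC50 is the concentration raising formazan in infected cells to 50% of uninfected, drug-free cells.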

The target of a further assay is T1, HIV protease (Human immunodeficiency virus type 1 group M subtype B, UniProt P04585).
T1 construct: and purified protease
The assay is described as follows: HIV Protease Assay. It is filed as biochemical. The essentials:
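Purified protease cleaved 450 μM octapeptide substrate in 50 mM sodium acetate pH 5.5 with 100 μg/ml BSA for 30 minutes at 37° C; product analyzed by reverse-phase HPLC at UV220 after H3PO4 quench. Inhibitors tested at final 10 μM with 4% DMSO.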

The mark [2] stands for this setting: pH 5.5, 10 μM inhibitor, 4% DMSO, 450 μM substrate, pH 5.5, 30 minutes at 37° C., RP-HPLC, read-out: HIV Protease % Inhibition at 10 μM.
Setting [3] is: pH 5.5, read-out: HIV Protease % Inhibition at 10 μM.

For the compound `COc1ccccc1C[C@H](NC(=O)OC(C)(C)C)[C@H](O)CNC[C@@H](O)[C@H](Cc1ccccc1)NC(=O)OC(C)(C)C` [Compound 349, [1S-[1R*,2S*(2S*,3R*)]]-[3-[[3-1,1-Dimethylethoxy)-carbonyl]amino]-2-hydroxy-4-(2-methoxyphenyl)butyl]-amino]-2-hydroxy-1-(phenylmethyl)propyl]carbamic acid, 1,1-dimethylethyl ester], in assay [1], the IC50 amounted to 0.37 µM. At HIV protease (setting [2]), the inhibition at 10 µM was 98%.

As for `CC(C)(C)OC(=O)N[C@@H](Cc1ccccc1)[C@H](O)CNC[C@@H](O)[C@H](Cc1ccccc1O)NC(=O)OC(C)(C)C` [Compound 350, [1S-[1R*,2S*(2S*,3R*)]]-[3-[[3-[[(1,1-Dimethylethoxy)carbonyl]amino]-2-hydroxy-4-(2-hydroxyphenyl)butyl]amino]-2-hydroxy-1-(phenylmethyl)propyl]carbamic acid, 1,1-dimethylethyl ester], the IC50 in assay [1] was found to be 0.5 µM. Also, the inhibition at 10 µM at HIV protease (setting [2]) came to 98%.

As for `CC(C)(C)OC(=O)N[C@@H](Cc1ccccc1)[C@H](O)CNC[C@@H](O)[C@H](Cc1ccccc1)NC(=O)[C@@H](NC(=O)OCCOCc1ccccc1)C(C)(C)C` [Compound 351, [S-[1R*,2S*(2S*,3R*)]]-[2,2-Dimethyl-1-[[[3-[[3-[[(1,1-dimethyl-ethoxy)carbonyl]amino]-2hydroxy-4-phenylbutyl]amino-2-hydroxy-1-(phenylmethyll)-propyl]amino]carbonyl]propyl]carbamic acid, 2-(phenylmethoxy)ethyl ester], in assay [1], the IC50 was found to be 0.08 µM. The inhibition at 10 µM at HIV protease (setting [2]) came to 99%.

Regarding `CC(C)(C)OC(=O)N[C@@H](Cc1ccccc1)[C@H](O)CNC[C@@H](O)[C@H](Cc1ccccc1)NC(=O)[C@@H](NC(=O)OCc1cc2cccnc2o1)C(C)(C)C` [Compound 352, [S-[1R*,2S*(2S*,3R*)]]-[2,2-Dimethyl-1-[[[3-[[3-[[(1,1-dimethylethoxy)carbonyl]amino]-2-hydroxy-4-phenylbutyl]amino]-2-hydroxy-1-(phenylmethyl)-propyl]amino]carbonyl]propyl]carbamic acid, (2-furo[2,3-b]pyridinyl)methyl ester], the IC50 in assay [1] stood at 0.1 µM. Besides, at HIV protease (setting [2]), the inhibition at 10 µM stood at 99%.

Regarding `CC(C)(C)OC(=O)N[C@@H](Cc1ccccc1)[C@H](O)CNC[C@@H](O)[C@H](Cc1ccccc1)NC(=O)[C@](C)(O)c1ccccc1` [Compound 353, [1S-[1R*,2S*[2S*,3R*(S*)]]]-[3-[[3-[(2-Hydroxy-1-oxo-2-phenylpropyl)amino]-2-hydroxy-4-phenylbutyl]amino]-2-hydroxy-l-(phenylmethyl)propyl]carbamic acid, 1,1-dimethylethyl ester], the IC50 in assay [1] is 1.1 µM. Also, the inhibition at 10 µM on HIV protease (setting [3]) came to 98%.

With `CNC(=O)C(C(=O)N[C@@H](Cc1ccccc1)[C@H](O)CNC[C@@H](O)[C@H](Cc1ccccc1)NC(=O)OC(C)(C)C)C(C)(C)C` (stereo partly drawn) [Compound 354, [1S-[1R*,2S*(2S*,3R*)]]-[3-[[3-[[3,3-Dimethyl-2-[(methylamino)carbonyl]-1-oxobutyl]amino]-2-hydroxy-4-phenylbutyl]amino]-2-hydroxy-1-(phenylmethyl)propyl]carbamic acid, 1,1-dimethylethyl ester], in assay [1], the IC50 stood at 0.12 µM. Further, the inhibition at 10 µM at HIV protease (setting [2]) came to 99%.

For the compound `CC(C)(O)COc1ccc(C[C@H](NC(=O)OC(C)(C)C)[C@H](O)CNC[C@@H](O)[C@H](Cc2ccccc2)NC(=O)OC(C)(C)C)cc1` [Compound 358, [1S-[1R*,2S*(2S*,3R*)]]-[3-[[3-[[(1,1-Dimethylethoxy)carbonyl]amino]-2-hydroxy-4-[4-(2-hydroxy-2-methylpropoxy)phenyl]butyl]amino]-2-hydroxy-1-(phenylmethyl)propyl]carbamic acid, 1,1-dimethylethyl ester], the IC50 in assay [1] came to 0.1 µM. The inhibition at 10 µM at HIV protease (setting [3]) stood at 99%.
